Measured values reported in the supplement of paper PMC11208160.

Assay: recombinant barcode read abundance after kanamycin selection (control-corrected) (log10(CPM+1)); higher = more efficient recombination; sequences stand for … in AGTGCAGAGAAAATCGGCCAGTTTTCTCTGCCTGCAGTCCGCATGCCGT…AGATTTATGCAGCGGACTGCCTTTCTCCCAAAGTGATAAACCGGACAGTATCATGGACCGGTTTTCCCGGTAATCCGTATTTGCAAGGTTGGTTTCACT; site = the 11-nt target
Method in brief: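 IS621 bridge RNA target-binding loops were paired with targets in a pooled library tested in E. coli. After co-electroporation with a donor plasmid, cells were plated in two replicates on chloramphenicol/ampicillin LB agar (control) and on chloramphenicol/ampicillin/kanamycin carrying 0.1 mM IPTG. Barcodes at recombinant junctions were counted as counts per million, averaged and control-corrected to give recombination efficiency. Values are log10(CPM+1).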
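Also: IS621 recombinase and bridge RNA in Escherichia coli cells.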

“TAGGATACTTGGGTTCTAACCTGTTGCAT (site TAGGATACTGT)” and “TAGGATACTTGGGTTCTAACCTGTTGCAT (site TAGGATACTTT)” are within 0.2 log units of each other in “recombinant barcode read abundance (log10)” value: 0.0987 for the first, 0.0945 for the second.

Going from “TAGGATACTTGGGTTCTAACCTGTTGCGT (site TAGGAAACTAC)” to “TAGGATACTTGGGTTCTAACCTGTTGCGT (site TAGGACACTAC)”, the “recombinant barcode read abundance (log10)” value rises from 0.314 to 0.928.

Compared with “TAGGATACTTGGGTTCTAACCTGTTGCGT (site TAGGAGACTAC)”, “TAGGATACTTGGGTTCTAACCTGTTGCGT (site TAGGATACTAC)” is higher in “recombinant barcode read abundance (log10)” value: 0.266 for the first, 3.02 for the second.

Going from “TAGGATCCTTGGGTTCTAACCTGTTGCGA (site ACCCGCTCTAG)” to “TAGGATCCTTGGGTTCTAACCTGTTGCGA (site TAGGATCCTTC)”, the “recombinant barcode read abundance (log10)” value rises from 0.205 to 2.71.

Compared with “TAGGATTCTTGGGTTCTAACCTGTTGCCT (site TAATATTCTAG)”, “TAGGATTCTTGGGTTCTAACCTGTTGCCT (site TAGGATTCTAG)” is higher in “recombinant barcode read abundance (log10)” value: 0.0335 for the first, 1.88 for the second.

“TAGGCGCCTTGGGTTCTAACCTGTTGCCT (site TAGGCGCCTAA)” and “TAGGCGCCTTGGGTTCTAACCTGTTGCCT (site TAGGCGCCTAC)” are within 0.2 log units of each other in “recombinant barcode read abundance (log10)” value: 0.173 for the first, 0.0375 for the second.

“TAGGCGCCTTGGGTTCTAACCTGTTGCCT (site TAGGCGCCTAG)” and “TAGGCGCCTTGGGTTCTAACCTGTTGCCT (site TAGGCGCCTAT)” are within 0.2 log units of each other in “recombinant barcode read abundance (log10)” value: 0.252 for the first, 0.235 for the second.

“TAGGCTACTTGGGTTCTAACCTGTTGCAA (site TAGGCTACTAT)” and “TAGGCTACTTGGGTTCTAACCTGTTGCAA (site TAGGCTACTCT)” are within 0.2 log units of each other in “recombinant barcode read abundance (log10)” value: 0.144 for the first, 0.0112 for the second.

“TAGGCTACTTGGGTTCTAACCTGTTGCAA (site TAGGCTACTGT)” and “TAGGCTACTTGGGTTCTAACCTGTTGCAA (site TAGGCTACTTT)” are within 0.2 log units of each other in “recombinant barcode read abundance (log10)” value: 1.49 for the first, 1.33 for the second.

“TAGGCTACTTGGGTTCTAACCTGTTGCAC (site TAGGCTACTAT)” and “TAGGCTACTTGGGTTCTAACCTGTTGCAC (site TAGGCTACTCT)” are within 0.2 log units of each other in “recombinant barcode read abundance (log10)” value: 0.147 for the first, 0.131 for the second.

Going from “TAGGCTACTTGGGTTCTAACCTGTTGCAC (site TAGGCTACTGT)” to “TAGGCTACTTGGGTTCTAACCTGTTGCAC (site TAGGCTACTTT)”, the “recombinant barcode read abundance (log10)” value falls from 1.19 to 0.00761.

“TAGGCTACTTGGGTTCTAACCTGTTGCCA (site ACCCAATCTGT)” and “TAGGCTACTTGGGTTCTAACCTGTTGCCA (site TAGGCTACTTG)” are within 0.2 log units of each other in “recombinant barcode read abundance (log10)” value: 0.0662 for the first, 0.129 for the second.

“TAGGCTCCTTGGGTTCTAACCTGTTGCAG (site TAGGCTCCTAT)” and “TAGGCTCCTTGGGTTCTAACCTGTTGCAG (site TAGGCTCCTCT)” are within 0.2 log units of each other in “recombinant barcode read abundance (log10)” value: 0.271 for the first, 0.429 for the second.

“TAGGCTCCTTGGGTTCTAACCTGTTGCAG (site TAGGCTCCTGT)” and “TAGGCTCCTTGGGTTCTAACCTGTTGCAG (site TAGGCTCCTTT)” are within 0.2 log units of each other in “recombinant barcode read abundance (log10)” value: 0.0237 for the first, 0.0834 for the second.

Going from “TAGGCTGCTTGGGTTCTAACCTGTTGCCT (site TAGACTGCTAG)” to “TAGGCTGCTTGGGTTCTAACCTGTTGCCT (site TAGCCTGCTAG)”, the “recombinant barcode read abundance (log10)” value falls from 0.359 to 0.

First: TAGGCTGCTTGGGTTCTAACCTGTTGCCT (site TAGGCTGCTAG)
Second: TAGGCTGCTTGGGTTCTAACCTGTTGCCT (site TAGTCTGCTAG)
The “recombinant barcode read abundance (log10)” value of the first is lower: 0.177 for the first, 0.519 for the second.

First: TAGGTTCCTTGGGTTCTAACCTGTTGCAT (site TAGGTACCTAT)
Second: TAGGTTCCTTGGGTTCTAACCTGTTGCAT (site TAGGTCCCTAT)
The “recombinant barcode read abundance (log10)” value of the first is higher: 0.795 for the first, 0.335 for the second.

Compared with “TAGGTTCCTTGGGTTCTAACCTGTTGCAT (site TAGGTGCCTAT)”, “TAGGTTCCTTGGGTTCTAACCTGTTGCAT (site TAGGTTCCTAT)” is higher in “recombinant barcode read abundance (log10)” value: 0.6 for the first, 1.04 for the second.

Compared with “TAGTACCCTTGGGTTCTAACCTGTTGCAT (site TAGTACCCTAT)”, “TAGTACCCTTGGGTTCTAACCTGTTGCAT (site TAGTACCCTCT)” is lower in “recombinant barcode read abundance (log10)” value: 0.43 for the first, 0.0976 for the second.

“TAGTACCCTTGGGTTCTAACCTGTTGCAT (site TAGTACCCTGT)” and “TAGTACCCTTGGGTTCTAACCTGTTGCAT (site TAGTACCCTTT)” are within 0.2 log units of each other in “recombinant barcode read abundance (log10)” value: 0.0568 for the first, 0.227 for the second.

“TAGTAGTCTTGGGTTCTAACCTGTTGCCT (site TAGTAGTCTAA)” and “TAGTAGTCTTGGGTTCTAACCTGTTGCCT (site TAGTAGTCTAC)” are within 0.2 log units of each other in “recombinant barcode read abundance (log10)” value: 0.0538 for the first, 0.0503 for the second.

Compared with “TAGTAGTCTTGGGTTCTAACCTGTTGCCT (site TAGTAGTCTAG)”, “TAGTAGTCTTGGGTTCTAACCTGTTGCCT (site TAGTAGTCTAT)” is lower in “recombinant barcode read abundance (log10)” value: 1.64 for the first, 0.108 for the second.

“TAGTATCCTTGGGTTCTAACCTGTTGCCA (site TACTACCCTTG)” and “TAGTATCCTTGGGTTCTAACCTGTTGCCA (site TAGTATCCTTG)” are within 0.2 log units of each other in “recombinant barcode read abundance (log10)” value: 0.142 for the first, 0.146 for the second.

Compared with “TAGTATCCTTGGGTTCTAACCTGTTGCTA (site TAGTATCCTTA)”, “TAGTATCCTTGGGTTCTAACCTGTTGCTA (site TAGTATGCTTA)” is lower in “recombinant barcode read abundance (log10)” value: 0.714 for the first, 0.0411 for the second.

“TAGTCGTCTTGGGTTCTAACCTGTTGCTT (site TAGTCGTCTAA)” and “TAGTCGTCTTGGGTTCTAACCTGTTGCTT (site TAGTCGTCTAG)” are within 0.2 log units of each other in “recombinant barcode read abundance (log10)” value: 0.456 for the first, 0.309 for the second.

“TAGTCTGCTTGGGTTCTAACCTGTTGCCT (site TAGACTGCTAG)” and “TAGTCTGCTTGGGTTCTAACCTGTTGCCT (site TAGCCTGCTAG)” are within 0.2 log units of each other in “recombinant barcode read abundance (log10)” value: 0.0965 for the first, 0.27 for the second.

“TAGTCTGCTTGGGTTCTAACCTGTTGCCT (site TAGGCTGCTAG)” and “TAGTCTGCTTGGGTTCTAACCTGTTGCCT (site TAGTCTGCTAG)” are within 0.2 log units of each other in “recombinant barcode read abundance (log10)” value: 0.0685 for the first, 0.0515 for the second.

First: TAGTGCTCTTGGGTTCTAACCTGTTGCCT (site TAGTGCTCTAG)
Second: TAGTGCTCTTGGGTTCTAACCTGTTGCCT (site TAGTGCTCTCG)
The “recombinant barcode read abundance (log10)” value of the first is higher: 1.12 for the first, 0.434 for the second.

“TAGTGCTCTTGGGTTCTAACCTGTTGCCT (site TAGTGCTCTGG)” and “TAGTGCTCTTGGGTTCTAACCTGTTGCCT (site TAGTGCTCTTG)” are within 0.2 log units of each other in “recombinant barcode read abundance (log10)” value: 0.157 for the first, 0.178 for the second.

“TAGTGGCCTTGGGTTCTAACCTGTTGCCA (site TAGTGGACTTG)” and “TAGTGGCCTTGGGTTCTAACCTGTTGCCA (site TAGTGGCCTTG)” are within 0.2 log units of each other in “recombinant barcode read abundance (log10)” value: 0.095 for the first, 0.261 for the second.

Going from “TAGTGTACTTGGGTTCTAACCTGTTGCCT (site TAGTGTACTAG)” to “TAGTGTACTTGGGTTCTAACCTGTTGCCT (site TAGTGTCCTAG)”, the “recombinant barcode read abundance (log10)” value falls from 0.579 to 0.16.

“TAGTGTACTTGGGTTCTAACCTGTTGCCT (site TAGTGTGCTAG)” and “TAGTGTACTTGGGTTCTAACCTGTTGCCT (site TAGTGTTCTAG)” are within 0.2 log units of each other in “recombinant barcode read abundance (log10)” value: 0.221 for the first, 0.376 for the second.

Going from “TAGTGTCCTTGGGTTCTAACCTGTTGCAT (site TAGTGTCCTAT)” to “TAGTGTCCTTGGGTTCTAACCTGTTGCAT (site TAGTGTTCTAT)”, the “recombinant barcode read abundance (log10)” value falls from 0.769 to 0.155.

Compared with “TAGTTAACTTGGGTTCTAACCTGTTGCCA (site TAGTTAACTTG)”, “TAGTTAACTTGGGTTCTAACCTGTTGCCA (site TAGTTCACTTG)” is lower in “recombinant barcode read abundance (log10)” value: 0.569 for the first, 0.0909 for the second.

“TAGTTAACTTGGGTTCTAACCTGTTGCCA (site TAGTTGACTTG)” and “TAGTTAACTTGGGTTCTAACCTGTTGCCA (site TAGTTTACTTG)” are within 0.2 log units of each other in “recombinant barcode read abundance (log10)” value: 0.0635 for the first, 0.0484 for the second.

Compared with “TAGTTAGCTTGGGTTCTAACCTGTTGCCG (site TAGTTAGCTAG)”, “TAGTTAGCTTGGGTTCTAACCTGTTGCCG (site TAGTTAGCTCG)” is higher in “recombinant barcode read abundance (log10)” value: 0.0808 for the first, 0.666 for the second.

“TAGTTAGCTTGGGTTCTAACCTGTTGCCG (site TAGTTAGCTGG)” and “TAGTTAGCTTGGGTTCTAACCTGTTGCCG (site TAGTTAGCTTG)” are within 0.2 log units of each other in “recombinant barcode read abundance (log10)” value: 0.00835 for the first, 0.0519 for the second.

“TAGTTATCTTGGGTTCTAACCTGTTGCTA (site AGACGTACTAC)” and “TAGTTATCTTGGGTTCTAACCTGTTGCTA (site TAGTTATCTTA)” are within 0.2 log units of each other in “recombinant barcode read abundance (log10)” value: 0.134 for the first, 0.0606 for the second.

First: TAGTTGCCTTGGGTTCTAACCTGTTGCCT (site TAATTGCCTAG)
Second: TAGTTGCCTTGGGTTCTAACCTGTTGCCT (site TACTTGCCTAG)
The “recombinant barcode read abundance (log10)” value of the first is higher: 0.296 for the first, 0 for the second.

Going from “TAGTTGCCTTGGGTTCTAACCTGTTGCCT (site TAGTTGCCTAG)” to “TAGTTGCCTTGGGTTCTAACCTGTTGCCT (site TATTTGCCTAG)”, the “recombinant barcode read abundance (log10)” value falls from 0.565 to 0.0554.

Compared with “TATACACCTTGGGTTCTAACCTGTTGCGT (site CTCCGGGCTCT)”, “TATACACCTTGGGTTCTAACCTGTTGCGT (site TATACACCTAC)” is higher in “recombinant barcode read abundance (log10)” value: 0.0474 for the first, 1.48 for the second.

Compared with “TATACCACTTGGGTTCTAACCTGTTGCCT (site TATACCACTAG)”, “TATACCACTTGGGTTCTAACCTGTTGCCT (site TCGACCACTAG)” is lower in “recombinant barcode read abundance (log10)” value: 0.541 for the first, 0.103 for the second.

First: TATATGACTTGGGTTCTAACCTGTTGCGG (site ATGCACGCTAG)
Second: TATATGACTTGGGTTCTAACCTGTTGCGG (site TATATGACTCC)
The “recombinant barcode read abundance (log10)” value of the first is lower: 0.0662 for the first, 1.41 for the second.
